Measured values as given in patent US5783558A, “Parathormone fragments, their preparation and medicaments containing these” (Boehringer Mannheim GmbH, priority 1992, dated 1998).

How the values were obtained:
[1] = tested on: UMR 106 cells; assay: DNA synthesis capacity of PTH(3-X) fragments on UMR 106 cells ([3H]-thymidine incorporation); type: cell-based
Description: DNA synthesis capacity on PTH-(3-X) fragments
An increased DNA synthesis capacity on UMR 106 cells was also observed with fragments, the N-terminus of which was shortened by two amino acids. An action maximum was again present when the chain length lay between 34 and 36 amino acids (cf. Tab. 6). This finding is surprising since it is known that a deletion of the amino acids +1 or +1 and +2 leads to the loss of the cAMP induction, combined with the loss of the calcium-mobilising properties of the PTH. An anabolic (mitogenic) activity of N-terminal shortened PTH fragments has hitherto not been described.

[2] = tested on: sterna organ cultures; assay: Mitogeneity on sterna organ cultures; type: cell-based; conditions: n=4
Method: Mitogeneity on sterna organ cultures
The mitogeneity of the new fragments was tested in organ cultures from sterna and it was ascertained that this activity was more strongly marked than in the case of the known fragments hPTH(1-34) and hPTH(1-38)(cf. Tab. 2).

[3] = tested on: rats; assay: Ca retention (Ca balance) in growing rats; type: in vivo, rat; design: Ca retention (mg per day) average value: dose or concentration left out as unconfirmed; conditions: for Ca retention (mg per day) average value / Ca retention % increase: male CD rats, daily subcutaneous, 10 days; for Ca retention (mg per day) average value: equimolar doses, balance measured during last 3 days; for Ca retention % increase: versus control; for Ca retention in words: rats, compared with hPTH(1-n), n=34, 37, 38
Method: Determination of the action of various PTH fragments on the Ca retention in the case of rats.
The measurement of the Ca balance in growing rats is a suitable model to test in vivo the effectiveness of a systemically administered substance on the bone metabolism. In the case of the Ca balance, the Ca flows in and out of the body are measured and the Ca retention (balance) calculated therefrom. It is thereby taken into account that the bones store about 99% of the body calcium, whereas the plasma calcium level remains constant. The amount of calcium retained in the body from the nutrition can, therefore, be regarded as proportional to the growth in the bone mass.
As experimental animals for the investigations, there served male CD rats which, at the beginning of the experiment, were 10 weeks old and weighed 250-300 g. The experimental animals were kept individually in commercially-available metabolic cages. An automatic separation of faeces and urine took place in the metabolic cages. Both fractions were collected quantitatively in collection containers and could be analyzed separately from one another.
As feed there served a standard diet for rats of meal-like consistency which was pasted with aqua dist. in the ratio of 1:1. The daily provided amount of feed was so adapted to the feed requirement of the animals in the sense of a so-called "group feedings" that they were completely eaten by all animals. The daily food ration amounted to 20 g (wet feed). Aqua dist. was offerred to the animals ad libitum.
All test substances were injected daily subcutaneously in equimolar doses (corresponding to […] hPTH(1-34)×kg^-1 ×day^-1), over 10 days. Of this, the first 7 days served for the adaptation of the animals, whereas the measurement of the Ca balance took place during the last 3 days.
The Ca intake was calculated via the amount of feed taken up and the experimentally determined Ca content of the feed. For this purpose, from the feed batch of each day, an aliquot was dried to constant weight and the water content determined from the comparison of wet and dry weight. Subsequently, 2×500 mg of the dried feed was digested with a laboratory microwave apparatus in conc. acids as follows: To 500 mg of dried feed were successively pipetted 3 ml HNO3 (conc.), 1 ml HCl (conc.) and 1 ml H2 O2 (30%). After the subsidence of the spontaneous oxidation reaction (foaming up), there followed the digestion pressure-controlled in closed digestion containers of Teflon PFA. The pressure/time steps were thereby successively following passed through: 40 psi (276 kpa), 5 min; 80 psi (552 kPa), 5 min; 150 psi ([…]); 10 min. To the cooled digest were then again added 2 ml H 2 O2 (30%) in order to test the completeness of the digestion reaction (no more foaming up).The digest was made up with a 1% lanthanum nitrate solution (v/v in 0.3% HCl) ad 100 ml. For the measurement of the Ca content on a flame atom absorption spectrometer (AAS), the samples were again dilute 1:100 with 1% lanthanum nitrate solution. The Ca intake was then calculated from the taken-up amount of feed and the measured water and Ca content.
The Ca loss via the faeces was then determined analogously to the Ca intake: Determination of the water content, acidic digestion in the microwave apparatus under the same conditions and subsequent measurement of the Ca content on the AAS.
In the collection container for the urine was placed 2 ml 10% HCl in order to prevent a precipitation of urate. After the end of the experiment, the urine volume was determined by weighing and subsequently an aliquot thereof diluted with 1% lanthanum nitrate solution (v/v in 0.3% HCl) in the ratio of 1:100. The determination of the Ca content of the samples took place on the AAS.

[4] = tested on: sterna organ cultures; assay: cAMP stimulation on sterna organ cultures; type: cell-based; conditions: for pMol cAMP: 100 nm inductor, n=4; for Induction of cAMP formation in words: compared with PTH(1-34)
Method: (§1) In organ cultures from sterna, as well as on membrane fractions from pigs' kidneys was measured the induction of the cAMP formation by various PTH peptides. […] This is of importance since the catabolic, i.e. calcium-mobilising properties of PTH are, as is known, involved with an increase of the cAMP (Schluter et al. (1989), J. Biol. Chem. 264, 19:11087-11092; Lowik et al., (1988), Calcif Tissue Int. 43:7-18). These findings are plausible and, therefore, support the above-mentioned findings which show an increase of the anabolic properties of the peptide in the case of a chain length between 35 and 36 amino acids.

[5] = tested on: ROS 17/2.8 cells; assay: DNA synthesis capacity on ROS 17/2.8 cells ([3H]-thymidine incorporation); type: cell-based; conditions: for DNA synthesis E/C / [^3 H]-thymidine incorporation (cpm): hPTH(1-X) 100 nM, ROS/2.8 cells
Method: DNA synthesis capacity on ROS 17/2.8 cells
The DNA synthesis capacity was measured on ROS 17/2.8 cells. […] Tab. 3: DNA synthesis hPTH(1-X), 100 nM, ROS/2.8 cells

[6] = tested on: membrane fractions from pigs' kidneys; assay: cAMP stimulation on porcine kidney membrane; type: biochemical, pig; conditions: for Induction of cAMP formation in words: membrane fractions from pigs' kidneys, compared with PTH(1-34); for pMol cAMP/mg protein ± SEM: porcine kidney membrane, n=3
Method: as §1

| Substance | DNA synthesis E/C ([1]; PTH(3-X) 100 nM) | [^3 H]-thymidine incorporation (cpm) ([1]; PTH(3-X) 100 nM) | DNA synthesis E/C ([1]; PTH(3-X) 300 nM) | [^3 H]-thymidine incorporation ([1]; PTH(3-X) 300 nM) | Mitogeneity E/C +/- SEM [2] | Ca retention (mg per day) average value [3] [mg per day] | Ca retention % increase [3] [%] | pMol cAMP [4] [pMol] | Induction of cAMP formation in words [4] | DNA synthesis capacity in words ([5]; ROS 17/2.8 cells, compared with other fragments) | DNA synthesis E/C [5] | [^3 H]-thymidine incorporation (cpm) [5] | Ca retention in words [3] | Induction of cAMP formation in words [6] | pMol cAMP/mg protein ± SEM [6] [pMol cAMP/mg protein] |
| --- | --- | --- | --- | --- | --- | --- | --- | --- | --- | --- | --- | --- | --- | --- | --- |
| PTH (3-37): PTH fragment, N-terminus shortened by two amino acids, positions 3-37 (SEIQLMHNLGKHLNSMERVEWLRKKLQDVHNFVAL; Parathyroid hormone; UniProt P01270 34-68, looked up, fragment) | 2.3 ± 0.06 | 2,161 ± 74 cpm | 4.1 ± 0.28 | 3,962 ± 268 |  |  |  |  |  |  |  |  |  |  |  |
| PTH (3-38): PTH fragment, N-terminus shortened by two amino acids, positions 3-38 (SEIQLMHNLGKHLNSMERVEWLRKKLQDVHNFVALG; Parathyroid hormone; UniProt P01270 34-69, looked up, fragment) | 2.1 ± 0.13 | 1,905 ± 159 cpm | 3.8 ± 0.43 | 3,701 ± 414 |  |  |  |  |  |  |  |  |  |  |  |
| PTH (3-34): PTH fragment, N-terminus shortened by two amino acids, positions 3-34 (SEIQLMHNLGKHLNSMERVEWLRKKLQDVHNF; Parathyroid hormone; UniProt P01270 34-65, looked up, fragment) | 1.9 ± 0.12 | 1,748 ± 150 cpm | 3.6 ± 0.31 | 3,516 ± 297 |  |  |  |  |  |  |  |  |  |  |  |
| hPTH(1-38): known human parathyroid hormone fragment, amino acids 1-38, state of the art (SVSEIQLMHNLGKHLNSMERVEWLRKKLQDVHNFVALG; Parathyroid hormone; UniProt P01270 32-69, looked up, fragment) [reference compound] |  |  |  |  | 2.96 +/- 0.30 | 91.8 | 85 |  |  |  |  |  |  |  |  |
| Ser-Val-Ser-Glu-Ile-Gln-Leu-Met-His-Asn-Leu-Gly-Lys-His-Leu-Asn-Ser-Met-Glu-Arg-Val-Glu-Trp-Leu-Arg-Lys-Lys-Leu-Gln-Asp-Val-His-Asn-Phe-Val (SVSEIQLMHNLGKHLNSMERVEWLRKKLQDVHNFV) [hPTH(1-35)] |  |  |  |  | 3.13 +/- 0.57 | 108.6 | 119 | 18.2 | decreased | more strongly increased | 4.1 ± 0.43 | 2,686 ± 282 cpm | higher Ca retention | decreased | 82.4 ± 0.4 |
| hPTH(1-37): known human parathyroid hormone fragment, amino acids 1-37 (WO 91/06564) (SVSEIQLMHNLGKHLNSMERVEWLRKKLQDVHNFVAL; Parathyroid hormone; UniProt P01270 32-68, looked up, fragment) [reference compound] |  |  |  |  |  | 96.0 | 94 |  |  |  | 3.1 ± 0.38 | 2,021 ± 251 cpm |  |  |  |
| Ser-Val-Ser-Glu-Ile-Gln-Leu-Met-His-Asn-Leu-Gly-Lys-His-Leu-Asn-Ser-Met-Glu-Arg-Val-Glu-Trp-Leu-Arg-Lys-Lys-Leu-Gln-Asp-Val-His-Asn-Phe-Val-Ala (SVSEIQLMHNLGKHLNSMERVEWLRKKLQDVHNFVA) [hPTH(1-36)] |  |  |  |  | 3.37 +/- 0.58 | 110.5 | 123 | 17.6 | decreased |  | 3.2 ± 0.37 | 2,136 ± 246 cpm | higher Ca retention | decreased | 44.6 ± 1.8 |
